Results reported in patent US20050257287A1, “Vectors capable of imparting herbicide resistance and viral cross protection and methods” (priority 2002, published 2005).

Test system: weeds including nutgrass (Cyperus rotundus L.), little hogweed (Portulaca oleracea L.), pigweed (Amaranthus sp.) and annual graminaceous weeds
Test: Field experiment: weed eradication by Basta
Type: in vivo
Settings: 0.5% Basta with or without AMS 1.5 g/L
Method: Two varieties of melon (Galia-type cv. 5080 and Ananas-type cv. Ofir), two varieties of watermelon (cvs Crimson and Seedless 313), squash (cv. Maayan) and cucumber (cv. Shimshon) were seeded in Speedling type trays. Seedlings were inoculated by bombardment of cotyledons with the AGII-Bar or AGII construct. Plants were planted in a 500 m^2 field, in a sandy loam soil, at 0.5 m intervals in six 2 m wide rows and irrigated by a single line of 0.5 m interval dripline. Each row included 15 plants of each of the five-cucurbit varieties, 13 plants inoculated with AGII-Bar and two inoculated with AGII as a control. Irrigation was initiated a week previously to boost weeds and facilitate planting. […] The active ingredient was calculated per hectare (g a.i./ha) on basis of ground speed measured separately for each treatment. […] Squash fruit were picked and counted daily. […] Each group was counted and then weighed collectively.
In order to verify the applicability of AGII-Bar to commercial cucurbit cultivation in a field prone to weed infestation an experiment including more than 450 plants was conducted. […] Ten day post inoculation, the infection rate was determined by ELISA of 50 random plant samples and found to be 100%. […]

Substance: ammonium sulphate [AMS]
- Effect of adjuvant on herbicidal activity: did not exert a detectable difference
